Measured values: US20250121078A1, “PEPTIDE DRUG CONJUGATES AND THEIR USES” (priority 2023, published 2025)
Where two headings read alike, the source gives them in different places. Where a SMILES comes first, the peptide text is derived from it. [ ]: non-standard residue; d: D form. The star is where a group is joined. Paclitaxel(2'-O-succinyl) = CC(=O)O[C@H]1C(=O)[C@@]2(C)[C@H]([C@H](OC(=O)c3ccccc3)[C@]3(O)C[C@H](OC(=O)[C@H](OC(=O)CCC(=O)*)[C@@H](NC(=O)c4ccccc4)c4ccccc4)C(C)=C1C3(C)C)[C@]1(OC(C)=O)CO[C@@H]1C[C@@H]2O; Propanoyl(3-SS-DM1) = COc1cc2cc(c1Cl)N(C)C(=O)C[C@H](OC(=O)[C@H](C)N(C)C(=O)CCSSCCC(=O)*)[C@]1(C)O[C@H]1[C@H](C)[C@@H]1C[C@@](O)(NC(=O)O1)[C@H](OC)/C=C/C=C(\C)C2; d(hArg(Et2)) = CCN=C(NCC)NCCCC[C@@H](N)C(=O)O; hArg(Et2) = CCN=C(NCC)NCCCC[C@H](N)C(=O)O; dPhe(4-Cl) = N[C@H](Cc1ccc(Cl)cc1)C(=O)O; d2Nal = N[C@H](Cc1ccc2ccccc2c1)C(=O)O; dCit = NC(=O)NCCC[C@@H](N)C(=O)O; d3Pal = N[C@H](Cc1cccnc1)C(=O)O

Target: T1, LHRHR, also known as GnRHR (Homo sapiens, UniProt P30968)
T1 sequence (P30968 1-328): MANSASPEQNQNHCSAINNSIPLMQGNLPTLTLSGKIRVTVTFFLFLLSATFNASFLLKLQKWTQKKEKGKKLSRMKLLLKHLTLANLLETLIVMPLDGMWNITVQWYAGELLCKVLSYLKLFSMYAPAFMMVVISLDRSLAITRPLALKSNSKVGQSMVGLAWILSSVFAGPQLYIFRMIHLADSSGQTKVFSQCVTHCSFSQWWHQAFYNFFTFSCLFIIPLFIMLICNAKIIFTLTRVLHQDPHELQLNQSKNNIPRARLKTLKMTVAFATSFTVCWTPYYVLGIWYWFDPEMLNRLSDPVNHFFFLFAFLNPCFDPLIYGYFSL
Experiment: Radioligand binding assay ([125I]-[D-Trp6]-LHRH displacement)
Description: An amount of 2 μg of a purified membrane with LHRHR, also known as GnRHR, was incubated with 0.18 nM [125I]-[D-Trp6]-LHRH and compounds of interest in the incubation buffer (50 mM HEPES, pH 7.4, 5 mM MgCl2, 1 mM CaCl2, and 0.2% BSA). The reaction mixtures were incubated for 1 h at 25° C. and then were transferred to a 96-well GF/B filter plate (Millipore Corp., Billerica, MA, USA), which were terminated by manifold filtration and washed with a wash buffer (50 mM HEPES, pH 7.4, and 100 mM NaCl) for six times. The radioactivity bound to the filter was measured by a Topcount® system (PerkinElmer Inc., Waltham, MA, USA). IC50 values were determined by the concentration of a compound required to inhibit 50% of the specific binding of [125I]-[D-Trp6]-LHRH and calculated by nonlinear regression (GraphPad Software, San Diego, CA, USA). The design of these drug conjugates is to actively targeting LHRH-receptor at tumor site and facilitate drug conjugate accumulation in situ. Therefore, selective and strong binding of the synthetic peptide ligand with the receptor is important to allow enrichment of these conjugates, followed by release of the drug payload in the tumor microenvironment.
Compounds of the invention have a binding as low as 0.17 nM.

[1] = purified membrane with LHRHR, 0.18 nM [125I]-[D-Trp6]-LHRH, 1 h at 25° C., read-out: Binding Assay

IC50 [1] [nM] | SMILES | IC50 [nM]
> 100 | CC(=O)N[C@H](Cc1ccc2ccccc2c1)C(=O)N[C@H](Cc1ccc(Cl)cc1)C(=O)N[C@H](Cc1cccnc1)C(=O)N[C@@H](CO)C(=O)N[C@H](CCCCN)C(=O)N[C@H](CCCNC(N)=O)C(=O)N[C@@H](CC(C)C)C(=O)N[C@@H](CCCNC(=N)N)C(=O)N1CCC[C@H]1C(=O)N[C@H](C)C(N)=O [Compound 1] (Ac-[d2Nal][dPhe(4-Cl)][d3Pal]S[dK][dCit]LRP[dA]-NH2) | 
0.1 to 1 | CC(=O)N[C@H](Cc1ccc2ccccc2c1)C(=O)N[C@H](Cc1ccc(Cl)cc1)C(=O)N[C@H](Cc1cccnc1)C(=O)N[C@@H](CO)C(=O)N[C@@H](Cc1ccc(O)cc1)C(=O)N[C@H](CCCCN)C(=O)N[C@@H](CC(C)C)C(=O)N[C@@H](CCCNC(=N)N)C(=O)N1CCC[C@H]1C(=O)N[C@H](C)C(N)=O [Compound 2] (Ac-[d2Nal][dPhe(4-Cl)][d3Pal]SY[dK]LRP[dA]-NH2) | 
10 to 100 | CC(=O)N[C@H](Cc1ccc2ccccc2c1)C(=O)N[C@H](Cc1ccc(Cl)cc1)C(=O)N[C@H](Cc1cccnc1)C(=O)N[C@@H](CO)C(=O)N[C@@H](Cc1ccc(O)cc1)C(=O)N[C@H](CCCNC(N)=O)C(=O)N[C@H](CCCCN)C(=O)N[C@@H](CCCNC(=N)N)C(=O)N1CCC[C@H]1C(=O)N[C@H](C)C(N)=O [Compound 3] (Ac-[d2Nal][dPhe(4-Cl)][d3Pal]SY[dCit][dK]RP[dA]-NH2) | 
> 100 | CCNC(=NCCCC[C@@H](NC(=O)[C@H](CCCCN)NC(=O)[C@H](CO)NC(=O)[C@@H](Cc1cccnc1)NC(=O)[C@@H](Cc1ccc(Cl)cc1)NC(=O)[C@@H](Cc1ccc2ccccc2c1)NC(C)=O)C(=O)N[C@@H](CC(C)C)C(=O)N[C@H](CCCCN=C(NCC)NCC)C(=O)N1CCC[C@H]1C(=O)N[C@H](C)C(N)=O)NCC [Compound 4] (Ac-[d2Nal][dPhe(4-Cl)][d3Pal]SK[d(hArg(Et2))]L[d(hArg(Et2))]P[dA]-NH2) | 
> 100 | CCNC(=NCCCC[C@@H](NC(=O)[C@H](Cc1ccc(O)cc1)NC(=O)[C@H](CO)NC(=O)[C@@H](Cc1cccnc1)NC(=O)[C@@H](Cc1ccc(Cl)cc1)NC(=O)[C@@H](Cc1ccc2ccccc2c1)NC(C)=O)C(=O)N[C@H](CCCCN)C(=O)N[C@H](CCCCN=C(NCC)NCC)C(=O)N1CCC[C@H]1C(=O)N[C@H](C)C(N)=O)NCC [Compound 5] (Ac-[d2Nal][dPhe(4-Cl)][d3Pal]SY[d(hArg(Et2))][dK][d(hArg(Et2))]P[dA]-NH2) | 
0.1 to 1 | CCNC(=NCCCC[C@H](NC(=O)[C@H](CC(C)C)NC(=O)[C@@H](CCCCN)NC(=O)[C@H](Cc1ccc(O)cc1)NC(=O)[C@H](CO)NC(=O)[C@@H](Cc1cccnc1)NC(=O)[C@@H](Cc1ccc(Cl)cc1)NC(=O)[C@@H](Cc1ccc2ccccc2c1)NC(C)=O)C(=O)N1CCC[C@H]1C(=O)N[C@H](C)C(N)=O)NCC [Compound 12] (Ac-[d2Nal][dPhe(4-Cl)][d3Pal]SY[dK]L[hArg(Et2)]P[dA]-NH2) | 
10 to 100 | CC(=O)N[C@H](Cc1ccc2ccccc2c1)C(=O)N[C@H](Cc1ccc(Cl)cc1)C(=O)N[C@H](Cc1cccnc1)C(=O)N[C@@H](CO)C(=O)N[C@@H](Cc1ccc(O)cc1)C(=O)N[C@H](CCCCN)C(=O)N[C@@H](CC(C)C)C(=O)N[C@H](CCCNC(=N)N)C(=O)N1CCC[C@H]1C(=O)N[C@H](C)C(N)=O [Compound 13] (Ac-[d2Nal][dPhe(4-Cl)][d3Pal]SY[dK]L[dR]P[dA]-NH2) | 
 | COc1cc2cc(c1Cl)N(C)C(=O)C[C@H](OC(=O)[C@H](C)N(C)C(=O)CCSC(=O)OCc1ccc(O[Si](OCCCn3nnc4c3CC[C@@H]3[C@H](CC4)[C@H]3COC(=O)N(CCCC[C@H](NC(=O)[C@H](CC(C)C)NC(=O)[C@@H](Cc3ccc(NC(N)=O)cc3)NC(=O)[C@H](Cc3ccc(NC(=O)[C@@H]4CC(=O)NC(=O)N4)cc3)NC(=O)[C@H](CO)NC(=O)[C@@H](Cc3cccnc3)NC(=O)[C@@H](Cc3ccc(Cl)cc3)NC(=O)[C@@H](Cc3ccc4ccccc4c3)NC(C)=O)C(=O)N3CCC[C@H]3C(=O)N[C@H](C)C(N)=O)C(C)C)(C(C)C)C(C)C)cc1)[C@]1(C)O[C@H]1[C@H](C)[C@@H]1C[C@@](O)(NC(=O)O1)[C@H](OC)/C=C/C=C(\C)C2 [Compound 19] | 1 to 10
 | CCNC(=NCCCC[C@H](NC(=O)[C@H](CC(C)C)NC(=O)[C@@H](CCCCNC(=O)CCSSCCC(=O)N(C)[C@@H](C)C(=O)O[C@H]1CC(=O)N(C)c2cc(cc(OC)c2Cl)C/C(C)=C/C=C/[C@@H](OC)[C@@]2(O)C[C@H](OC(=O)N2)[C@@H](C)[C@@H]2O[C@@]12C)NC(=O)[C@H](Cc1ccc(O)cc1)NC(=O)[C@H](CO)NC(=O)[C@@H](Cc1cccnc1)NC(=O)[C@@H](Cc1ccc(Cl)cc1)NC(=O)[C@@H](Cc1ccc2ccccc2c1)NC(C)=O)C(=O)N1CCC[C@H]1C(=O)N[C@H](C)C(N)=O)NCC [Compound 23] (Ac-[d2Nal][dPhe(4-Cl)][d3Pal]SY[dK](Propanoyl(3-SS-DM1))L[hArg(Et2)]P[dA]-NH2) | 0.1 to 1
 | COc1cc2cc(c1Cl)N(C)C(=O)C[C@H](OC(=O)[C@H](C)N(C)C(=O)CCSSCCC(=O)NCCCC[C@@H](NC(=O)[C@H](Cc1ccc(O)cc1)NC(=O)[C@H](CO)NC(=O)[C@@H](Cc1cccnc1)NC(=O)[C@@H](Cc1ccc(Cl)cc1)NC(=O)[C@@H](Cc1ccc3ccccc3c1)NC(C)=O)C(=O)N[C@@H](CC(C)C)C(=O)N[C@H](CCCNC(=N)N)C(=O)N1CCC[C@H]1C(=O)N[C@H](C)C(N)=O)[C@]1(C)O[C@H]1[C@H](C)[C@@H]1C[C@@](O)(NC(=O)O1)[C@H](OC)/C=C/C=C(\C)C2 [Compound 24] (Ac-[d2Nal][dPhe(4-Cl)][d3Pal]SY[dK](Propanoyl(3-SS-DM1))L[dR]P[dA]-NH2) | 1 to 10

SMILES | IC50 [1] [nM] | IC50 [nM]
CCNC(=NCCCC[C@@H](NC(=O)[C@@H](CCCCNC(=O)CCC(=O)O[C@@H](C(=O)O[C@H]1C[C@@]2(O)[C@@H](OC(=O)c3ccccc3)[C@@H]3[C@]4(OC(C)=O)CO[C@@H]4C[C@H](O)[C@@]3(C)C(=O)[C@H](OC(C)=O)C(=C1C)C2(C)C)[C@@H](NC(=O)c1ccccc1)c1ccccc1)NC(=O)[C@H](CO)NC(=O)[C@@H](Cc1cccnc1)NC(=O)[C@@H](Cc1ccc(Cl)cc1)NC(=O)[C@@H](Cc1ccc2ccccc2c1)NC(C)=O)C(=O)N[C@@H](CC(C)C)C(=O)N[C@H](CCCCN=C(NCC)NCC)C(=O)N1CCC[C@H]1C(=O)N[C@H](C)C(N)=O)NCC [Compound 7] (Ac-[d2Nal][dPhe(4-Cl)][d3Pal]S[dK](Paclitaxel(2'-O-succinyl))[d(hArg(Et2))]L[d(hArg(Et2))]P[dA]-NH2) | > 100 | 
COc1cccc2c1C(=O)c1c(O)c3c(c(O)c1C2=O)C[C@@](O)(C(=O)CO)C[C@@H]3O[C@H]1C[C@H](NC(=O)OCc2ccc(NC(=O)[C@H](C)NC(=O)[C@@H](NC(=O)c3ccc(COCCOCCOCCn4nnc5c4CC[C@H]4[C@@H](CC5)[C@@H]4COC(=O)NCCCC[C@@H](NC(=O)[C@H](Cc4ccc(O)cc4)NC(=O)[C@H](CO)NC(=O)[C@@H](Cc4cccnc4)NC(=O)[C@@H](Cc4ccc(Cl)cc4)NC(=O)[C@@H](Cc4ccc5ccccc5c4)NC(C)=O)C(=O)N[C@@H](CC(C)C)C(=O)N[C@@H](CCCNC(=N)N)C(=O)N4CCC[C@H]4C(=O)N[C@H](C)C(N)=O)cc3)C(C)C)cc2)[C@H](O)[C@H](C)O1 [Compound 17] | 0.1 to 1 | 
COc1cc2cc(c1Cl)N(C)C(=O)C[C@H](OC(=O)[C@H](C)N(C)C(=O)CCSC(=O)OC[C@H]1[C@@H]3CCc4c(nnn4CCCC[C@@H](NC(=O)[C@H](Cc4ccc(O)cc4)NC(=O)[C@H](CO)NC(=O)[C@@H](Cc4cccnc4)NC(=O)[C@@H](Cc4ccc(Cl)cc4)NC(=O)[C@@H](Cc4ccc5ccccc5c4)NC(C)=O)C(=O)N[C@@H](CC(C)C)C(=O)N[C@@H](CCCNC(=N)N)C(=O)N4CCC[C@H]4C(=O)N[C@H](C)C(N)=O)CC[C@@H]31)[C@]1(C)O[C@H]1C(C)[C@@H]1C[C@@](O)(NC(=O)O1)[C@H](OC)/C=C/C=C(\C)C2 (stereo partly shown) [Compound 20] | 0.1 to 1 | 
